Test system: mouse colorectal cancer cell CT26
Experiment: Anti-tumor effect in tumor-bearing mice, transition of tumor volume
Type: in vivo, mice (BALB/c)
Settings: i.v. injection, α-mangostin 10 mg/kg, nanoparticles of average particle size 20 nm, FIG. 9
Protocol: The anti-tumor effect of the particles of the present invention containing α-mangostin was examined using mice (BALB/c, 7 weeks old, male) that bore the mouse colorectal cancer cell CT26. It was confirmed that the size of the tumor that the mice bore reached 100 mm^3 (7 days after), and a sample was intravenously administered (i. v. injection). The doses of α-mangostin at this time were standardized to 10 mg/kg. The transition of the tumor volume was observed after the administration.
Nanoparticles: average particle size: 20 nm (produced under the conditions of X (TX100): 0.15 mM and Y (ECH): 2.1 mL of Production Example 5) α-mangostin: Tokyo Chemical Industry Co., Ltd. Buffer solution: phosphate buffer (pH 7.5) nanoparticles containing no α-mangostin: only the nanoparticles (50 mg/mL) α-mangostin solution: α-mangostin solution (1.0 mM) containing 0.4 vol % DMSO, 2 vol % ethanol, and 2 vol TWEEN 80 (surfactant) nanoparticles containing α-mangostin: solution in which α-mangostin was contained in the nanoparticles (nanoparticle concentration: 50 mg/mL, α-mangostin concentration: 1.0 mM) Experimental data (animal experiment using mice)

COc1c(O)cc2oc3cc(O)c(CC=C(C)C)c(O)c3c(=O)c2c1CC=C(C)C [MGS, α-mangostin]
effect of suppressing the cancer growth (tumor volume): not observed
